From patent publication US10906889B2, “Polycyclic inhibitors of cyclin-dependent kinase 7 (CDK7)” (Dana-Farber Cancer Institute, Inc., priority 2013, dated 2021)
Read-outs that look alike come from different tables or passages of the source.

What was measured:
CDK7 = biological target: T1, CDK7 (Homo sapiens, UniProt P50613); assay: Adapta kinase assay (Life Technologies), CDK7; assay type: biochemical
T1 construct: purchased Life Technologies (assay service)

CDK9/cyclin T1 = CDK9/cyclin T1 (Homo sapiens, UniProt P50750); assay: Adapta kinase assay (Life Technologies), CDK9/cyclin T1; conditions: for inhibition at 0.1 µM: read-out: CDK9^a,e percent inhibition; for inhibition at 1 µM: read-out: CDK9^b,e percent inhibition
Procedure: (§1) Compounds of the invention were assayed for activity against a variety of different kinases at Life Technologies™ (Grand Island, N.Y.) using their commercially available Adapta® (for CDK7, CDK9/cyclin T1, and IRAK1 kinases), Z′-Lyte® (for CDK1, CDK2, CDK5/p25, CDK5/p35, JNK1 and JNK2 kinases), and LanthaScreen Eu® (for CDK8, CDK9/cyclin K and MLK3) kinase assay services. Test compounds were tested at 100 nM and 1 μM final concentrations in 1% DMSO against all kinases except CDK7. For CDK7, test compounds were tested at concentrations ranging from 10 μM to 0.514 nM in a series of 3-fold serial dilutions. […] The co-factors used for each kinase in the assays were as follows: CDK1: cyclin B; CDK2: cyclin A; CDK5: p25 or p35 as indicated; CDK7: cyclin H and MNAT1; CDK8: cyclin C; CDK9: cyclin K or cyclin T1 as indicated; IRAK1: Histone H3 (1-20) peptide; JNK1: none required; JNK2: none required; MLK3: none required.

CDK8 = biological target: T2, CDK8 (Homo sapiens, UniProt P49336); assay: LanthaScreen Eu kinase assay (Life Technologies), CDK8; assay type: binding; conditions: co-factor cyclin C; for inhibition at 0.1 µM: compound tested at 100 nM, read-out: CDK8^a percent inhibition; for inhibition at 1 µM: compound tested at 1 μM, read-out: CDK8^b percent inhibition
T2 construct: purchased Life Technologies (assay service)

CDK5/p25 = CDK5/p25 (Homo sapiens, UniProt Q00535); assay: Z'-Lyte kinase assay (Life Technologies), CDK5/p25; conditions: for inhibition at 0.1 µM: read-out: CDK5^a,c percent inhibition; for inhibition at 1 µM: read-out: CDK5^b,c percent inhibition
Procedure: as §1

CDK2 = biological target: T3, CDK2 (Homo sapiens, UniProt P24941); assay: Z'-Lyte kinase assay (Life Technologies), CDK2; assay type: biochemical; conditions: co-factor cyclin A; for inhibition at 0.1 µM: compound tested at 100 nM, read-out: CDK2^a percent inhibition; for inhibition at 1 µM: compound tested at 1 μM, read-out: CDK2^b percent inhibition
T3 construct: purchased Life Technologies (assay service)

CDK9/cyclin K = CDK9/cyclin K (Homo sapiens, UniProt P50750); assay: LanthaScreen Eu kinase assay (Life Technologies), CDK9/cyclin K
Procedure: as §1

SKBR3 = assay: Cell proliferation (CellTiter-Glo, 72 hour), SKBR3; assay type: cell-based; conditions: Homo sapiens, SK-BR-3, breast cancer cell line, read-out: SKBR3 inhibition of proliferation (IC50)
T47D = assay: Cell proliferation (CellTiter-Glo, 72 hour), T47D; assay type: cell-based; conditions: Homo sapiens, breast cancer cell line, read-out: T47D inhibition of proliferation (IC50)
CDK5/p35 = CDK5/p35 (Homo sapiens, UniProt Q00535); assay: Z'-Lyte kinase assay (Life Technologies), CDK5/p35; conditions: for inhibition at 0.1 µM: read-out: CDK5^a,d percent inhibition; for inhibition at 1 µM: read-out: CDK5^b,d percent inhibition
Procedure: as §1

JNK1 = biological target: T4, JNK1 (Homo sapiens, UniProt P45983); assay: Z'-Lyte kinase assay (Life Technologies), JNK1; assay type: biochemical; conditions: for inhibition at 0.1 µM: compound tested at 100 nM, read-out: JNK1^a percent inhibition; for inhibition at 1 µM: compound tested at 1 μM, read-out: JNK1^b percent inhibition
T4 construct: purchased Life Technologies (assay service)

SAOS = assay: Cell proliferation (CellTiter-Glo, 72 hour), SAOS; assay type: cell-based; conditions: osteosarcoma cell line, read-out: SAOS inhibition of proliferation (IC50)
hTERT-HME1 = assay: Cell proliferation (CellTiter-Glo, 72 hour), hTERT-HME1; assay type: cell-based; conditions: breast cancer cell lines table, read-out: hTERT-HME1 inhibition of proliferation (IC50)
Hs822T = assay: Cell proliferation (CellTiter-Glo, 72 hour), Hs822T; assay type: cell-based; conditions: Ewing's sarcoma cell line, read-out: Hs822T inhibition of proliferation (IC50)
HL60 = assay: Cell proliferation (CellTiter-Glo, 72 hour), HL60; assay type: cell-based; conditions: Homo sapiens, HL-60, blood cancer cell line, read-out: HL60 inhibition of proliferation (IC50)
MV4-11 = assay: Cell proliferation (CellTiter-Glo, 72 hour), MV4-11; assay type: cell-based; conditions: Homo sapiens, blood cancer cell line, read-out: MV4-11 inhibition of proliferation (IC50)
Jurkat cells = assay: Cell proliferation (CellTiter-Glo, 72 hour), Jurkat; assay type: cell-based; conditions: Homo sapiens, blood cancer cell line
CDK1 = biological target: T5, CDK1 (Homo sapiens, UniProt P06493); assay: Z'-Lyte kinase assay (Life Technologies), CDK1; assay type: biochemical; conditions: co-factor cyclin B; for inhibition at 0.1 µM: compound tested at 100 nM, read-out: CDK1^a percent inhibition; for inhibition at 1 µM: compound tested at 1 μM, read-out: CDK1^b percent inhibition
T5 construct: purchased Life Technologies (assay service)

143B = assay: Cell proliferation (CellTiter-Glo, 72 hour), 143B; assay type: cell-based; conditions: Homo sapiens, osteosarcoma cell line, read-out: 143B inhibition of proliferation (IC50)
A673 = assay: Cell proliferation (CellTiter-Glo, 72 hour), A673; assay type: cell-based; conditions: Homo sapiens, Ewing's sarcoma cell line, read-out: A673 inhibition of proliferation (IC50)
Hs863T = assay: Cell proliferation (CellTiter-Glo, 72 hour), Hs863T; assay type: cell-based; conditions: Ewing's sarcoma cell line, read-out: Hs863T inhibition of proliferation (IC50)
SK-ES-1 = assay: Cell proliferation (CellTiter-Glo, 72 hour), SK-ES-1; assay type: cell-based; conditions: Homo sapiens, SK-ES1, Ewing's sarcoma cell line, read-out: SK-ES-1 inhibition of proliferation (IC50)
MCF10A = assay: Cell proliferation (CellTiter-Glo, 72 hour), MCF10A; assay type: cell-based; conditions: Homo sapiens, MCF-10A, breast cancer cell lines table, read-out: MCF10A inhibition of proliferation (IC50)
MNNG-HOS Cl #5 = assay: Cell proliferation (CellTiter-Glo, 72 hour), MNNG-HOS Cl #5; assay type: cell-based; conditions: osteosarcoma cell line, read-out: MNNG-HOS Cl#5 inhibition of proliferation (IC50)
MDA-MB231 = assay: Cell proliferation (CellTiter-Glo, 72 hour), MDA-MB231; assay type: cell-based; conditions: Homo sapiens, MDA-MB-231, breast cancer cell line, read-out: MDA-MB231 inhibition of proliferation (IC50)
THP-1 = assay: Cell proliferation (CellTiter-Glo, 72 hour), THP-1; assay type: cell-based; conditions: Homo sapiens, blood cancer cell line, read-out: THP-1 inhibition of proliferation (IC50)
RD-ES = assay: Cell proliferation (CellTiter-Glo, 72 hour), RD-ES; assay type: cell-based; conditions: Ewing's sarcoma cell line, read-out: RD-ES inhibition of proliferation (IC50)
MLK3 = biological target: T6, MLK3 (Homo sapiens, UniProt Q16584); assay: LanthaScreen Eu kinase assay (Life Technologies), MLK3; assay type: binding; conditions: for IC50: Table 2, read-out: MLK3 (calculated IC50); for inhibition at 0.1 µM: compound tested at 100 nM, read-out: MLK3^a percent inhibition
T6 construct: purchased Life Technologies (assay service)

JNK2 = biological target: T7, JNK2 (Homo sapiens, UniProt P45984); assay: Z'-Lyte kinase assay (Life Technologies), JNK2; assay type: biochemical; conditions: for inhibition at 0.1 µM: compound tested at 100 nM, read-out: JNK2^a percent inhibition; for inhibition at 1 µM: compound tested at 1 μM, read-out: JNK2^b percent inhibition
T7 construct: purchased Life Technologies (assay service)

RS4-11 = assay: Cell proliferation (CellTiter-Glo, 72 hour), RS4-11; assay type: cell-based; conditions: Homo sapiens, blood cancer cell line, read-out: RS4-11 inhibition of proliferation (IC50)
IRAK1 = biological target: T8, IRAK1 (Homo sapiens, UniProt P51617); assay: Adapta kinase assay (Life Technologies), IRAK1; assay type: biochemical; conditions: for inhibition at 0.1 µM: compound tested at 100 nM, read-out: IRAK1^a percent inhibition; for inhibition at 1 µM: compound tested at 1 μM, read-out: IRAK1^b percent inhibition
T8 construct: purchased Life Technologies (assay service)

MCF7 = assay: Cell proliferation (CellTiter-Glo, 72 hour), MCF7; assay type: cell-based; conditions: Homo sapiens, breast cancer cell line, read-out: MCF7 inhibition of proliferation (IC50)
[1] = Table 1C, co-factors cyclin H and MNAT1, read-out: CDK7 IC50
[2] = Table 2, co-factors cyclin H and MNAT1, read-out: CDK7 (calculated IC50)

CDK9/cyclin T1, sequence (P50750 whole entry): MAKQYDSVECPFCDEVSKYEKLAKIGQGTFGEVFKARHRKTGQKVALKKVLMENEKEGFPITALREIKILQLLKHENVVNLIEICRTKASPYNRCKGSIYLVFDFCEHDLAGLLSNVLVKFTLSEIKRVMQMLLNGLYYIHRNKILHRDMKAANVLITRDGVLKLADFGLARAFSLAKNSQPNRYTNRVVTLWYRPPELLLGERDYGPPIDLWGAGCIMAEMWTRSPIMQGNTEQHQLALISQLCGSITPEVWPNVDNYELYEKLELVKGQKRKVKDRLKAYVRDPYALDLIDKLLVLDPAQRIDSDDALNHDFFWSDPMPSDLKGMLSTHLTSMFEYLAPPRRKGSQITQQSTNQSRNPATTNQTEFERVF
CDK9/cyclin T1, sequence (O60563 whole entry partner): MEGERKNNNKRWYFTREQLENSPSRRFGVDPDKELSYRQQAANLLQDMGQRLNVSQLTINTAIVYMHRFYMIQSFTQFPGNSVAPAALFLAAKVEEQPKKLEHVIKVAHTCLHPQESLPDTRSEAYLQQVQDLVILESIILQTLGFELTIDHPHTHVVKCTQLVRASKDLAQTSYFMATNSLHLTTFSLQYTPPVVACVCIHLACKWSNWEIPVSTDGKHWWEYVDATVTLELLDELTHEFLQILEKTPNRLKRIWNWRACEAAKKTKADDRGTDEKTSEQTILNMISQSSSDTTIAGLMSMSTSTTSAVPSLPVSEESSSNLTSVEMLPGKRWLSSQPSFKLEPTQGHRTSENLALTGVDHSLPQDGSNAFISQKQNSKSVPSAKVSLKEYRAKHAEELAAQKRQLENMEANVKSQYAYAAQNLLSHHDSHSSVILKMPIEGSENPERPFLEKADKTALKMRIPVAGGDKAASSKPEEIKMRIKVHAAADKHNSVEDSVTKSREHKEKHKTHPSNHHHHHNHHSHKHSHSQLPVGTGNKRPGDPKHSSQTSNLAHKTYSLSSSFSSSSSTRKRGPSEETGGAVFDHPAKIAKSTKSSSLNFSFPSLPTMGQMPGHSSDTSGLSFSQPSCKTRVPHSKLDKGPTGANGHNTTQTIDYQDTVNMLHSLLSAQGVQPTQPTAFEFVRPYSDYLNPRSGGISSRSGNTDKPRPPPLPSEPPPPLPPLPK
T8 sequence (P51617 whole entry): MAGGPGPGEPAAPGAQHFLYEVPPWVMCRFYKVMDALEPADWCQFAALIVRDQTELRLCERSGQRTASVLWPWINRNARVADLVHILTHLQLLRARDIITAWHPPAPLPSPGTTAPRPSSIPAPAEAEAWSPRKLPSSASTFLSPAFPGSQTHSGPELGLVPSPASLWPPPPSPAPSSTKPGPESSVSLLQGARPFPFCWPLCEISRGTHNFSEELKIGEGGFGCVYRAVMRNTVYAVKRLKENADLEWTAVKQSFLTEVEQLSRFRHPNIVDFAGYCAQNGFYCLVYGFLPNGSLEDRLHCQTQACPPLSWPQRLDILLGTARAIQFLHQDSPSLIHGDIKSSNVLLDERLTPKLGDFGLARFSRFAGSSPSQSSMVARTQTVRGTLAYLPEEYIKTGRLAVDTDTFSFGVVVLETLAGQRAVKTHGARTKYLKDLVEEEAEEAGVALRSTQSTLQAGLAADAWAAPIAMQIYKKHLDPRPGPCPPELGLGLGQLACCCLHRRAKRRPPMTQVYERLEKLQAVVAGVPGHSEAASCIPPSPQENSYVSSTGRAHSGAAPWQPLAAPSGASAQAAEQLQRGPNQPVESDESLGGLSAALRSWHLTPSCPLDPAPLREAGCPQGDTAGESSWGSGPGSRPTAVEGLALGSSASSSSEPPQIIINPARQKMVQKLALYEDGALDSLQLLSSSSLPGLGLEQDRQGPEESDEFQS
T4 sequence (P45983 whole entry): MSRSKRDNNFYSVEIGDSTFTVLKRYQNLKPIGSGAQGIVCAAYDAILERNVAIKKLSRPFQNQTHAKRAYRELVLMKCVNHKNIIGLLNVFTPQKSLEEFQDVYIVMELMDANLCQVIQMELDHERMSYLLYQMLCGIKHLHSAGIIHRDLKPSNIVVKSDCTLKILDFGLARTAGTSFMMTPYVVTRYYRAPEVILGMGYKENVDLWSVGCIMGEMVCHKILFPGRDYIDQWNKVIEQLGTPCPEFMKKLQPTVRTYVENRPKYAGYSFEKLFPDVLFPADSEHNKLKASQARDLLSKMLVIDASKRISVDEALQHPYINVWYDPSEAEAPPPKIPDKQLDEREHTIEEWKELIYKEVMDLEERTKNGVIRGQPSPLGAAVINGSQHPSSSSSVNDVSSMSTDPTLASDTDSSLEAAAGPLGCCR
T7 sequence (P45984 whole entry): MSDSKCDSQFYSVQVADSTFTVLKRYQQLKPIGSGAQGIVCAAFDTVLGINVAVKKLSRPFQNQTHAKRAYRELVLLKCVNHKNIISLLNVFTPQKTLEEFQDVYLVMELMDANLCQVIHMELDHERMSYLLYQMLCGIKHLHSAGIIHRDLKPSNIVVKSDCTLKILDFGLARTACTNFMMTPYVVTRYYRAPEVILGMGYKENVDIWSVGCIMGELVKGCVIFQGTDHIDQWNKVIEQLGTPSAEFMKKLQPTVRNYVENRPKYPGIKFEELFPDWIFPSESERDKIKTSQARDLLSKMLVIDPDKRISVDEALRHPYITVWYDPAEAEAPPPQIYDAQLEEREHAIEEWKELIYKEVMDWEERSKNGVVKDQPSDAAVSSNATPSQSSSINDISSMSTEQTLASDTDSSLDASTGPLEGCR
T2 sequence (P49336 whole entry): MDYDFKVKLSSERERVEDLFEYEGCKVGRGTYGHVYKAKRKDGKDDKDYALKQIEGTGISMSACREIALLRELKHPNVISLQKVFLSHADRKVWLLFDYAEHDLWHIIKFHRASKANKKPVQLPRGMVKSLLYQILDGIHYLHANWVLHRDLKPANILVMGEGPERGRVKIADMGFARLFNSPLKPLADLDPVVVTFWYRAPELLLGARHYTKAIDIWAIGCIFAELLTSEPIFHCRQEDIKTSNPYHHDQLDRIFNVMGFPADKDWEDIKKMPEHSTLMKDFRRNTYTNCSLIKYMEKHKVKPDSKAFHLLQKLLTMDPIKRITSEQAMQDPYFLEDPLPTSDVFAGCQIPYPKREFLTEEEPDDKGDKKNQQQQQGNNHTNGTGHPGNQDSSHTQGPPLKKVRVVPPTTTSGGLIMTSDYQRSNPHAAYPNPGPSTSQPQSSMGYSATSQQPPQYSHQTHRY
T2 sequence (P24863 whole entry partner): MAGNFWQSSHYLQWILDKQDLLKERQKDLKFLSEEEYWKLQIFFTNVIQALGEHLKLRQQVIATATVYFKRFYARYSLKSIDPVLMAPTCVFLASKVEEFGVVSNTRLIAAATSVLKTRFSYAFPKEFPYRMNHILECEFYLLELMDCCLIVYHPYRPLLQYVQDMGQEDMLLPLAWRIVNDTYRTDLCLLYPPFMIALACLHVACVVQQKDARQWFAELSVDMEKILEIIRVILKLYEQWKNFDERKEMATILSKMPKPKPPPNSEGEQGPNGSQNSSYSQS
T1 sequence (P50613 whole entry): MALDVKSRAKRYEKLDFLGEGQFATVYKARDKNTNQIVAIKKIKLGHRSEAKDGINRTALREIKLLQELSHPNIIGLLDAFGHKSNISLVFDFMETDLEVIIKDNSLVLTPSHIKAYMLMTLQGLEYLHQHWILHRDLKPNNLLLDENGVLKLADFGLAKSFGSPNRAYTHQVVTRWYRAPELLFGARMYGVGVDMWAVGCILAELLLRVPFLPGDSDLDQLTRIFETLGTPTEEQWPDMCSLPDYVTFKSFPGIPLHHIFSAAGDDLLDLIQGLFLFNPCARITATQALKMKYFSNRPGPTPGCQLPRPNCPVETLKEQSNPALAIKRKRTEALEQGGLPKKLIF
T1 sequence (P51946 whole entry partner): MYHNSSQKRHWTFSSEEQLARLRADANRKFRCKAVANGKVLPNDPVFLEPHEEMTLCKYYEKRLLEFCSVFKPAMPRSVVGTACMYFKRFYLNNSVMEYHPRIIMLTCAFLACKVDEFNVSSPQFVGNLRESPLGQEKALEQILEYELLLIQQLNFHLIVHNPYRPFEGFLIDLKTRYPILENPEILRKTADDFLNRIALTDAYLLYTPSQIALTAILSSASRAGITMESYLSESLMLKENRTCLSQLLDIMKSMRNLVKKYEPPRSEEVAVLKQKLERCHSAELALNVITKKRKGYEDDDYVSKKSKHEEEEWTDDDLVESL
T1 sequence (P51948 whole entry partner): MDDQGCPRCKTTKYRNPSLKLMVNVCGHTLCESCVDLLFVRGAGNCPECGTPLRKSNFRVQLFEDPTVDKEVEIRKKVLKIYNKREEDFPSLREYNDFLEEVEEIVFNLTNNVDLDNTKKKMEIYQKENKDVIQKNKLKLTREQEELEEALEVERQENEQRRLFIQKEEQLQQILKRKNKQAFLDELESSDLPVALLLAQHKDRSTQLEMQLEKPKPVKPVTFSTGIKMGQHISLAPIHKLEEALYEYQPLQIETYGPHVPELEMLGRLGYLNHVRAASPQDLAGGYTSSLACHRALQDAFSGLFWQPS
CDK5/p25, sequence (Q00535 whole entry): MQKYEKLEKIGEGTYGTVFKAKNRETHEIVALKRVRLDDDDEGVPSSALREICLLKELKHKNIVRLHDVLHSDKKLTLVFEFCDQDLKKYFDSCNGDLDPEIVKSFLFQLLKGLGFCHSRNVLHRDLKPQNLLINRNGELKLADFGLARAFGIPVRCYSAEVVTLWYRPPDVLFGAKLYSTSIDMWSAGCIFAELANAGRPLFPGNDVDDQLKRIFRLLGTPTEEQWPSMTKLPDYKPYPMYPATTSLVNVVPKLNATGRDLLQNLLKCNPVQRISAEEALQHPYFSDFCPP
CDK5/p25, sequence (Q15078 99-307 partner limits assumed): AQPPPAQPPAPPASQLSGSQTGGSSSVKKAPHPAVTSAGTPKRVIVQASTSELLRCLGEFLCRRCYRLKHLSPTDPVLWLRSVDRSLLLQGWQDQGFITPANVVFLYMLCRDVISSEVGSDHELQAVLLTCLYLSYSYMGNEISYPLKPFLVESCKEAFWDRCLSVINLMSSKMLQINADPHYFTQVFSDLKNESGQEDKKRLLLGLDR

CN(C)C/C=C/C(=O)Nc1ccc(C(=O)NC2CCCC(Nc3ncc(Cl)c(-c4c[nH]c5ccccc45)n3)C2)cc1 (stereo not shown) [Compound 100, (E)-N-(3-((5-chloro-4-(1H-indol-3-yl)pyrimidin-2-yl)amino)cyclohexyl)-4-(4-(dimethylamino)but-2-enamido)benzamide]
IC50 (CDK7; [1]): < 100 nM | IC50 (CDK7; [2]): < 100 nM | IC50 (CDK9/cyclin T1): 100 to 1000 nM | IC50 (CDK8; Table 2, read-out: CDK8 (calculated IC50)): 100 to 1000 nM | IC50 (CDK5/p25): > 1000 nM | IC50 (CDK2; Table 2, read-out: CDK2 (calculated IC50)): > 1000 nM | IC50 (CDK9/cyclin K): 100 to 1000 nM

CN(C)C/C=C/C(=O)Nc1ccc(C(=O)N[C@H]2CCC[C@@H](Nc3ncc(Cl)c(-c4c[nH]c5ccccc45)n3)C2)cc1 [Compound 102, N-((1S,3R)-3-(5-chloro-4-(1H-indol-3-yl)pyrimidin-2-ylamino)cyclohexyl)-4-((E)-4-(dimethylamino)but-2-enamido)benzamide]
IC50 (CDK7; [1]): < 100 nM | IC50 (CDK7; [2]): < 100 nM | IC50 (SKBR3): > 5000 nM | IC50 (T47D): > 5000 nM | inhibition at 0.1 µM (CDK5/p35): < 50% | inhibition at 1 µM (CDK5/p35): < 50% | inhibition at 0.1 µM (CDK9/cyclin T1): < 50% | inhibition at 1 µM (CDK9/cyclin T1): < 50% | inhibition at 0.1 µM (CDK8): < 50% | inhibition at 1 µM (CDK8): < 50% | inhibition at 0.1 µM (JNK1): < 50% | inhibition at 1 µM (JNK1): 50 to 70% | IC50 (SAOS): < 500 nM | IC50 (hTERT-HME1): < 500 nM | IC50 (Hs822T): > 5000 nM | IC50 (HL60): < 500 nM | IC50 (MV4-11): < 500 nM | IC50 (CDK5/p25): > 1000 nM | inhibition at 0.1 µM (CDK5/p25): < 50% | inhibition at 1 µM (CDK5/p25): < 50% | IC50 (Jurkat cells): < 500 nM | inhibition at 0.1 µM (CDK1): < 50% | inhibition at 1 µM (CDK1): < 50% | IC50 (143B): > 5000 nM | IC50 (A673): < 500 nM | IC50 (Hs863T): > 5000 nM | inhibition at 0.1 µM (CDK2): < 50% | inhibition at 1 µM (CDK2): < 50% | IC50 (SK-ES-1): < 500 nM | IC50 (MCF10A): < 500 nM | IC50 (MNNG-HOS Cl #5): > 5000 nM | IC50 (MDA-MB231): < 500 nM | IC50 (THP-1): < 500 nM | IC50 (RD-ES): < 500 nM | IC50 (MLK3): > 1000 nM | inhibition at 0.1 µM (MLK3): < 50% | inhibition at 0.1 µM (JNK2): < 50% | inhibition at 1 µM (JNK2): 50 to 70% | IC50 (RS4-11): < 500 nM | inhibition at 0.1 µM (IRAK1): < 50% | inhibition at 1 µM (IRAK1): < 50% | IC50 (MCF7): > 5000 nM

CN(C)C/C=C/C(=O)Nc1ccc(C(=O)N[C@H]2CCC[C@H](Nc3ncc(Cl)c(-c4c[nH]c5ccccc45)n3)C2)cc1 [compound 103]
IC50 (CDK7; [1]): 100 to 1000 nM | IC50 (CDK7; [2]): 100 to 1000 nM | IC50 (SKBR3): > 5000 nM | IC50 (T47D): > 5000 nM | inhibition at 0.1 µM (CDK5/p35): < 50% | inhibition at 1 µM (CDK5/p35): < 50% | inhibition at 0.1 µM (CDK9/cyclin T1): < 50% | inhibition at 1 µM (CDK9/cyclin T1): 50 to 70% | inhibition at 0.1 µM (CDK8): < 50% | inhibition at 1 µM (CDK8): < 50% | inhibition at 0.1 µM (JNK1): < 50% | inhibition at 1 µM (JNK1): 50 to 70% | IC50 (SAOS): 500 to 5000 nM | IC50 (hTERT-HME1): 500 to 5000 nM | IC50 (Hs822T): > 5000 nM | IC50 (HL60): 500 to 5000 nM | IC50 (MV4-11): < 500 nM | IC50 (CDK5/p25): > 1000 nM | inhibition at 0.1 µM (CDK5/p25): < 50% | inhibition at 1 µM (CDK5/p25): < 50% | IC50 (Jurkat cells): 500 to 5000 nM | inhibition at 0.1 µM (CDK1): < 50% | inhibition at 1 µM (CDK1): < 50% | IC50 (143B): > 5000 nM | IC50 (A673): < 500 nM | IC50 (Hs863T): > 5000 nM | inhibition at 0.1 µM (CDK2): < 50% | inhibition at 1 µM (CDK2): < 50% | IC50 (SK-ES-1): 500 to 5000 nM | IC50 (MCF10A): < 500 nM | IC50 (MNNG-HOS Cl #5): > 5000 nM | IC50 (MDA-MB231): 500 to 5000 nM | IC50 (THP-1): 500 to 5000 nM | IC50 (RD-ES): 500 to 5000 nM | IC50 (MLK3): > 1000 nM | inhibition at 0.1 µM (MLK3): < 50% | inhibition at 0.1 µM (JNK2): < 50% | inhibition at 1 µM (JNK2): > 70% | IC50 (RS4-11): 500 to 5000 nM | inhibition at 0.1 µM (IRAK1): < 50% | inhibition at 1 µM (IRAK1): < 50% | IC50 (MCF7): 500 to 5000 nM
